Test results reported in EPA's ToxValDB 9.5 (doi:10.2903/j.efsa.2014.3880).
Values joined by “and” are separate entries in the source; they are usually repeats but may differ in a detail not shown here. Equal entries are not always repeated.

What was measured:
Oncorhynchus mykiss = details: chronic/long-term; duration: 65 days; mortality
Daphnia magna = details: chronic/long-term; duration: 21 days; reproduction
Bibionidae = details: chronic/long-term; duration: 23 days; reproduction
Rattus norvegicus = details: for NOAEL: chronic
Apis mellifera = details: acute, mortality
Anas platyrhynchos = details: short-term; oral; feed; food consumption
Folsomia candida = details: chronic/long-term
Typhlodromus pyri = experiment: LR50; higher = less toxic; details: not reported; reproduction

Compound: c1ccc2[nH]c(-c3cscn3)nc2c1 [Thiabendazole]
- NOEC (Oncorhynchus mykiss): 0.012 mg/L
- NOEC (Daphnia magna): 0.041 mg/L
- NOEC (Bibionidae): 2 mg/L and 3 mg/kg
- LD50 (Rattus norvegicus; acute): 3100 mg/kg
- NOAEL (Rattus norvegicus): 10 mg/kg-day
- NOAEL (Rattus norvegicus; duration: 2 years, histopathology: neoplastic): 10 mg/kg-day
- NOEL (Rattus norvegicus; reproduction developmental, reproduction): 10 mg/kg-day
- LD50 (Colinus virginianus; acute, oral): > 2250 mg/kg
- NOAEL (Colinus virginianus; reproduction developmental): 34.9 mg/kg-day
- LC50 (Tagia sp.; acute, duration: 14 days, mortality): > 224 mg/kg
- NOEC (Tagia sp.; chronic/long-term, duration: 8 weeks): 2.1 mg/kg
- LD50 (Apis mellifera; dermal): > 34 µg/piece
- LD50 (Apis mellifera; oral, unspecified): > 200 µg/piece
- LC50 (Anas platyrhynchos): > 1290 mg/kg
- NOEC (Folsomia candida): 25 mg/kg
- LR50 (Typhlodromus pyri): > 1800 g/ha
